Tests used:
Assay in all cases: relative viability (nuclei count vs DMSO), 5 days (fraction); higher = more cells survive
YM155 + Trametinib = compound: COCC[n+]1c2c(n(Cc3cnccn3)c1C)C(=O)c1ccccc1C2=O [YM155] + CC(=O)Nc1cccc(-n2c(=O)n(C3CC3)c(=O)c3c(Nc4ccc(I)cc4F)n(C)c(=O)c(C)c32)c1 [Trametinib] (partner 0.02 µM)
Outline: (§1)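 Lung cancer cell lines were seeded in 1536-well plates and dosed by pin tool the next day, with either a single drug or a fixed anchor-drug dose combined with five library-drug doses (not always all listed) spaced in √10 steps. Five days later, one step fixed the cells and stained their nuclei (final 0.05% Triton X-100, 1% formaldehyde, 1 ug/ml Hoechst), and nuclei were counted on 4× images. Relative viability is the nuclei count in treated wells divided by the count in vehicle wells, and each value is the median of duplicate plates.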

YM155 + Pemetrexed = compound: COCC[n+]1c2c(n(Cc3cnccn3)c1C)C(=O)c1ccccc1C2=O [YM155] + Nc1nc2[nH]cc(CCc3ccc(C(=O)N[C@@H](CCC(=O)O)C(=O)O)cc3)c2c(=O)[nH]1 [Pemetrexed] (partner 0.2 µM)
Outline: as §1

YM155 + Foretinib = compound: COCC[n+]1c2c(n(Cc3cnccn3)c1C)C(=O)c1ccccc1C2=O [YM155] + COc1cc2c(Oc3ccc(NC(=O)C4(C(=O)Nc5ccc(F)cc5)CC4)cc3F)ccnc2cc1OCCCN1CCOCC1 [Foretinib] (partner 0.25 µM)
Outline: as §1

Quizartinib + Pemetrexed = compound: CC(C)(C)c1cc(NC(=O)Nc2ccc(-c3cn4c(n3)sc3cc(OCCN5CCOCC5)ccc34)cc2)no1 [Quizartinib] + Nc1nc2[nH]cc(CCc3ccc(C(=O)N[C@@H](CCC(=O)O)C(=O)O)cc3)c2c(=O)[nH]1 [Pemetrexed] (partner 0.2 µM)
Outline: as §1

| Cell Line | relative viability (YM155 + Trametinib; first compound 0.002 µM) | relative viability (YM155 + Trametinib; first compound 0.006325 µM) | relative viability (YM155 + Trametinib; first compound 0.02 µM) | relative viability (YM155 + Trametinib; first compound 0.06325 µM) | relative viability (YM155 + Pemetrexed; first compound 0.002 µM) | relative viability (YM155 + Pemetrexed; first compound 0.006325 µM) | relative viability (YM155 + Pemetrexed; first compound 0.02 µM) | relative viability (YM155 + Pemetrexed; first compound 0.06325 µM) | relative viability (YM155 + Foretinib; first compound 0.002 µM) | relative viability (YM155 + Foretinib; first compound 0.006325 µM) | relative viability (YM155 + Foretinib; first compound 0.02 µM) | relative viability (YM155 + Foretinib; first compound 0.06325 µM) | relative viability (Quizartinib + Pemetrexed; first compound 0.001 µM) | relative viability (Quizartinib + Pemetrexed; first compound 0.003162 µM) | relative viability (Quizartinib + Pemetrexed; first compound 0.01 µM) | relative viability (Quizartinib + Pemetrexed; first compound 0.1 µM) | relative viability (Quizartinib + Pemetrexed; first compound 0.03162 µM) |
| --- | --- | --- | --- | --- | --- | --- | --- | --- | --- | --- | --- | --- | --- | --- | --- | --- | --- |
| EMC-BAC-2 | 0.924 | 0.96 | 0.968 | 0.429 | 0.456 | 0.486 | 0.463 | 0.424 | 1.03 | 0.986 | 0.966 | 0.95 | 0.365 | 0.44 | 0.451 | 0.493 |  |
| NCI-H460 | 0.081 | 0.147 | 0.174 | 0.14 | 0.072 | 0.0667 | 0.0671 | 0.0598 | 0.957 | 1.04 | 1.01 | 0.919 |  | 0.058 | 0.0614 | 0.073 |  |
| NCI-H2405 | 0.661 | 0.595 | 0.596 | 0.384 | 0.886 | 0.961 | 0.914 | 0.452 | 1.04 | 1.03 | 0.936 | 0.64 | 0.961 | 1.04 | 1.02 | 1.15 | 1.08 |
| SK-LU-1 | 0.455 | 0.456 | 0.564 | 0.438 | 0.946 | 0.956 | 0.91 | 0.684 | 0.766 | 0.738 | 0.904 | 0.661 | 0.875 | 0.912 | 1.08 | 0.993 | 0.975 |
| NCI-H1395 | 1.04 | 1.02 | 1.08 | 1.2 | 0.857 | 0.737 | 1.03 | 0.906 | 0.943 | 0.91 | 0.984 | 1.01 | 0.802 | 0.927 | 0.717 | 1 | 0.74 |
| NCI-H1975 | 0.291 | 0.299 | 0.406 | 0.236 | 0.26 | 0.258 | 0.302 | 0.167 | 0.978 | 0.907 | 0.933 | 0.308 | 0.283 | 0.306 | 0.316 | 0.294 | 0.295 |
| BEN | 0.984 | 0.864 | 0.951 | 1.2 | 0.63 | 0.839 | 0.934 | 0.908 | 0.622 | 0.716 | 0.804 | 0.645 | 0.739 | 0.959 | 0.681 | 0.78 | 0.659 |
| NCI-H2228 | 0.485 | 0.444 | 0.565 | 0.589 | 0.329 | 0.318 | 0.332 | 0.326 | 0.772 | 0.912 | 0.867 | 0.708 | 0.288 | 0.311 | 0.355 | 0.317 | 0.316 |
| NCI-H2023 | 0.538 | 0.617 | 0.451 | 0.241 | 0.23 | 0.247 | 0.194 | 0.155 | 0.999 | 0.662 | 0.767 | 0.368 | 0.209 | 0.215 | 0.295 | 0.244 |  |
| NCI-H1793 | 0.4 | 0.452 | 0.432 | 0.407 | 0.708 | 0.896 | 1.03 | 0.954 | 0.626 | 0.875 | 0.675 | 0.79 | 0.806 | 1.03 | 0.841 | 0.929 | 0.854 |
| NCI-H1993 | 0.466 | 0.536 | 0.427 | 0.453 | 0.566 | 0.542 | 0.567 | 0.444 | 0.659 | 0.709 | 0.811 | 0.64 | 0.55 | 0.566 | 0.567 | 0.59 | 0.67 |
| PC-3 [JPC-3] | 0.774 | 0.666 | 0.685 | 0.598 | 0.978 | 1.22 | 1.07 | 0.967 | 1.04 | 1.08 | 1.11 | 1.02 | 0.845 | 1.12 | 0.852 | 1.17 | 1 |
| NCI-H650 | 1.05 | 0.875 | 0.967 | 1.04 | 0.834 | 0.744 | 0.966 | 1.08 | 0.985 | 0.932 | 0.988 | 1.06 | 0.902 | 0.945 | 0.9 | 1.09 | 0.912 |
| NCI-H596 | 0.783 | 0.784 | 0.744 | 0.859 | 0.429 | 0.485 | 0.532 | 0.499 | 0.79 | 0.833 | 0.946 | 0.829 | 0.511 | 0.475 | 0.498 | 0.459 | 0.476 |
| NCI-H2170 | 0.878 | 0.936 | 0.903 | 0.966 | 0.253 | 0.256 | 0.271 | 0.264 | 1 | 0.983 | 1 | 1.09 | 0.252 | 0.242 | 0.279 | 0.277 | 0.293 |
| NCI-H2087 | 0.143 | 0.179 | 0.271 | 0.225 | 0.639 | 0.677 | 0.685 | 0.604 | 1.17 | 0.968 | 1.07 | 0.869 | 0.66 | 0.536 | 0.71 | 0.651 | 0.661 |
| COR-L 105 | 0.433 | 0.449 | 0.484 | 0.456 | 1.01 | 1.04 | 1 | 0.602 | 0.994 | 1.02 | 0.848 | 0.733 | 0.985 | 1.18 | 1.29 | 1.3 |  |
| NCI-H2126 | 0.558 | 0.582 | 0.541 | 0.556 | 0.696 | 0.691 | 0.67 | 0.753 | 0.893 | 1.07 | 1.25 | 1.29 | 0.682 | 0.658 | 0.765 | 0.689 | 0.663 |
| NCI-H322M | 0.55 | 0.5 | 0.48 | 0.536 | 0.504 | 0.613 | 0.576 | 0.622 | 1.02 | 1.08 | 0.931 | 0.981 | 0.6 | 0.662 | 0.639 | 0.703 | 0.62 |

Reference: the supplement of paper PMC10307832
